We go through three compounds from patent publication US10570124B2, “Deoxycytidine kinase binding compounds” (THE REGENTS OF THE UNIVERSITY OF CALIFORNIA, priority 2016, dated 2020).

Assay [1] deals with p185BCR-ABL/Arf-/- pre-B ALL cells. Description: Acute lymphoblastic leukemia (ALL) model, bioluminescence imaging. It is filed as in vivo, NSG mice. As to conditions: 50 mg/kg, days 4, 6, 8, 11 after inoculation. As to the method: The efficacy of Compound 9R and (R)-DI-82 single agent therapy against short-term cultures of murine BCR-ABL (p185), Arf^−/− pre-B ALL cells (p185^BCR-ABL/Arf^−/−) was assessed. This assay was previously described in Boulos, N. et al., 2011. “Chemotherapeutic agents circumvent emergence of dasatinib-resistant BCR-ABL kinase mutations in a precise mouse model of Philadelphia chromosome-positive acute lymphoblastic leukemia, Blood, 117:3585-3595 and Nathanson, D. 2014 “Co-targeting of convergent nucleotide biosynthetic pathways for leukemia eradication” J. Exp. Med. 211(3): 473-486, all of which are incorporated herein by reference.
Bioluminescent imaging and data analysis were performed using a Xenogen IVIS-200 system and Living Image Version 3.01 software (Caliper Life Sciences). […] Total flux measurements (photons/second) were quantified over the whole-animal body or a contour drawn around a target organ. […]
To evaluate the efficacy of Compound 9R and (R)-DI-82 in an in vivo B-ALL model, firefly luciferase—marked p185^BCR-ABL/Arf^−/− cells were inoculated intravenously in NSG mice. 4 days, 6 days, 8 days and 11 days after inoculation, bioluminescence imaging (BLI) of firefly luciferase-marked p185^BCR-ABL/Arf^−/− ALL-bearing NSG mice treated with 50 mg/kg compound 9R or 50 mg/kg (R)-DI-82 were measured. […]

In assay [2] the test system is HUKEMIA Acute Myeloid Leukemia model AM-7577. Kind of assay: Acute myeloid leukemia study, HUKEMIA model AM-7577 in NOD/SCID mice. It is filed as in vivo, Mus Musculus. As to conditions: for ILS (increase in life-span): vs vehicle group. As to the method:
In this study, NOD/SCID mice were injected (i.v.) with cells from a human donor diagnosed with AML (IDH2, FLT3-ITD, DNMT3A, and CEBPA mutations identified). Tumor burden was assessed by evaluation of human CD45 positive leukemia cells using FACS. The primary end point was animal survival. Median survival time (MST) and increase in life-span (ILS) were calculated for all animals.
The animals were inoculated HUKEMIA® Model AM-7577. The vehicle and treatment injections were started on Day 9 post cell inoculation Day 10 post cell inoculation, respectively.
Weekly Monitoring: Body weight was monitored twice a week. Human leukemia cells was detected by FACS weekly by CD45.
Endpoints and/or Termination: The end points varied according to the tumor burden growth in Vehicle group. The major end point was animal survival. The survival of all animals was followed and median survival time (MST) was calculated for each group. The increase in life-span (ILS) was calculated as follows: ILS (%)=100×[(Median Survival Time of drug treated group/Median Survival Time of vehicle group)−1](%).
Statistical Analysis: Data was evaluated using one way ANOVA. All data was analyzed using Prism 5.0 and IBM SPSS Statistics 19.0. p<0.05 was considered to be statistically significant.

In assay [3] the target is dCK (Mus musculus, UniProt P43346). Kind of assay: Inhibition of dCK activity in vivo by [18F]L-FAC PET/CT imaging. As to conditions: mice, IP injection, [18F]L-FAC 4 h after treatment.
dCK (Mus musculus, UniProt P43346), sequence (P43346 whole entry): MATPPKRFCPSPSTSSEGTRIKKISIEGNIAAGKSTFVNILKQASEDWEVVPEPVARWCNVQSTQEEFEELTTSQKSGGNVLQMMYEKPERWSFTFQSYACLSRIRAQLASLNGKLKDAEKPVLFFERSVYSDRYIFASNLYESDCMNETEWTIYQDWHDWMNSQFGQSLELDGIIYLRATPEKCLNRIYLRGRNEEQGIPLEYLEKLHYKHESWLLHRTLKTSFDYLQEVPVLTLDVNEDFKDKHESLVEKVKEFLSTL
Method: [^18F]L-FAC PET/CT scans were performed as described in Shu, C.
For assay [4], the target named is T1, dCK (Homo sapiens, UniProt P27707).
T1 construct: endogenous in cells; host or cells: CEM cells
T1 sequence (P27707 whole entry): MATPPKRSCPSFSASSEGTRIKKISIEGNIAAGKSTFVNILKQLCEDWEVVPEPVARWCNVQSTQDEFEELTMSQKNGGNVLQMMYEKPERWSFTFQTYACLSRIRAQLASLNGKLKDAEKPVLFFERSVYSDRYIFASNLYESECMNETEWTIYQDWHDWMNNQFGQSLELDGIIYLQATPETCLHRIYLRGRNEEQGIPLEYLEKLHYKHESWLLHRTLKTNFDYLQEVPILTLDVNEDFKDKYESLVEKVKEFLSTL
Kind of assay: Inhibition of [3H]-deoxycytidine (dCyd) uptake by CEM cells. It is filed as cell-based. Particulars: read-out: dCKi-IC-50. The method, then: 50,000 CEM cells/well were added to Millipore MultiScreen GV 96 well plates. Cells were resuspended at […] and incubated for 30 minutes at 37° C. The drug dilution plate was prepared by starting with an initial drug concentration of 10 mM in DMSO, and proceeding to make 1:5 dilutions for drug. […] and mixed by pipetting 10 times before removing 10 uL for next well (1:5 serial dilutions). The media and tritiated deoxycytidine was mixed together. […] of media/probe mixture was added to each well of an Optiplate. […] from drug plate was added to each well in the Optiplate to obtain drug/media/probe mixture and mixed. […] of drug/media/probe mixture from Optiplate was added to the cell plate and incubate at 37° C. for 1 hour. The cell plate was placed on vacuum to aspirate, and then washed with ice cold PBS: […] 1×PBS 4 times. The backing of the plate was peeled off, and the plate was placed in dryer for at least 30 minutes or until dry at 37° C. […] Scintillation fluid per well was added, and the plate was sealed with clear plate seal. The plate was read on the Microbeta instrument.

“Also recorded” adds a separate entry of the source. Like-named read-outs stand apart in the source and are kept apart here.

For the compound `COc1ccc(-c2nc([C@@H](C)Sc3nc(N)cc(N)n3)c(C)s2)cc1OCCNS(C)(=O)=O` [(R)-DI-82, (R)—N-(2-(5-(4-(1-(4,6-diaminopyrimidin-2-ylthio)ethyl)-5-methylthiazol-2-yl)-2-methoxyphenoxy)ethyl)methanesulfonamide], the “efficacy in the p185BCR-ABL/Arf-/- ALL model (bioluminescence)” value in assay [1] is given as “show efficacy”.
For the compound `COc1ccc(-c2nc([C@@H](C)Sc3nc(N)cc(N)n3)c(C)s2)cc1OCCN1CCOCC1` [Compound 9R, (R)-2-(1-(2-(4-methoxy-3-(2-morpholinoethoxy)phenyl)-5-methylthiazol-4-yl)ethylthio)pyrimidine-4,6-diamine], the “tumor burden growth (human CD45 by FACS)” value in assay [2] (25 mg/Kg) is on record as “significant increase post cells inoculation day 29”; in assay [2] (50 mg/Kg) it was “slowly increased during Day 29 to Day 44 post cell inoculation”; in assay [2] (100 mg/Kg) it was “slowly increased during Day 29 to Day 44 post cell inoculation”. Further, the values for the Median survival in assay [2] (25 mg/kg po BID x 46 days), in assay [2] (50 mg/kg po BID x 46 days) and in assay [2] (100 mg/kg po BID x 46 days) were 49 days, 54 days and 54 days, respectively. Moreover, the “ILS (increase in life-span)” value in assay [2] (25 mg/kg po BID) is listed as 0%; in assay [2] (50 mg/kg po BID) it was 10%; in assay [2] (100 mg/kg po BID), 10%. In assay [2] (100 mg/kg, day 44 post cell inoculation, p=0.021), the “tumor burden in peripheral blood vs vehicle” value is reported as “significant antitumor effects”. In assay [3], the “inhibition of dCK activity in vivo ([18F]L-FAC PET/CT)” value is given as “strongly inhibit dCK activity in vivo; also recorded: greater inhibition of dCK”. Besides, the IC50 in assay [4] ([3H]-dCyd uptake) is 3.15 nM; in assay [4] ([3H]dC uptake, 0 mg/mL BSA), 4.03 nM; in assay [4] ([3H]dC uptake, 25 mg/mL BSA), 6.87 nM; in assay [4] ([3H]dC uptake, 50 mg/mL BSA) it was 11.6 nM.
In the case of `COc1ccc(-c2nc([C@H](C)Sc3nc(N)cc(N)n3)c(C)s2)cc1OCCN1CCOCC1` [Compound 9S, (S)-2-(1-(2-(4-methoxy-3-(2-morpholinoethoxy)phenyl)-5-methylthiazol-4-yl)ethylthio)pyrimidine-4,6-diamine], the IC50 in assay [4] ([3H]-dCyd uptake) worked out at 468 nM.
